Results reported in patent US20130059855A1, “CRYSTAL OF DI(ARYLAMINO)ARYL COMPOUND” (ASTELLAS PHARMA INC., priority 2010, published 2013).
In brackets after ≈: the same amount, converted by molar mass.

Key:
[1] = Hygroscopicity Test B (water absorption/dehydration behavior); format: physicochemical; conditions: 25° C., humidity range of 5-95% R.H.
Experimental: The water absorption/dehydration behavior of A04-type crystal was assessed using water balance measuring apparatus SGA-X100 (VTI) under the following conditions. Temperature: 25° C., measurement range: 5-95% R.H., measurement interval: 5%.

Hygroscopicity Test A = format: physicochemical; conditions: relative humidity of 93% (KNO3 saturated aqueous solution), 25° C., 7 days
Experimental: About 0.5 g of A04-type crystal was weighed into an (open) weighing bottle with a known mass to obtain a precise mass, then the weighing bottle was placed in a desiccator adjusted to a relative humidity of 93% by KNO3 saturated aqueous solution and stored at 25° C. for 7 days before measuring the change in mass.

[2] = Assessment of filterability (constant pressure filtration test, Ruth plot); format: physicochemical; conditions: for Filtration Constant B / Cake Average Specific Resistance αm: crystallization slurry, applied pressure 100 kPa; for Filtration Constant B: from inclination of Ruth plot; for Cake Average Specific Resistance αm: constant pressure filtration
Source text: Slurries of A02-type crystal prepared by a method similar to that of the Variation of Reference Example 2 and A04-type crystal prepared by a method similar to that of Example 2 were used to perform constant pressure filteration test, and the cake-average filteration specific resistance αm was obtained by constant pressure filteration formula of Ruth shown in formula (1) to assess filterability. Note that the slurry used in the present test is the crystallization slurry immediately before the crystals are collected by filtration in the preparation of the crystals.
The calculation of cake average specific resistance αm [m/kg] was performed by plotting (Ruth plot) μ [m^3/m^2] and Δθ/Δν [sec/m], obtaining the filtration constant B from the inclination of the obtained line, and inserting the parameters shown in the filtration condition row of Table 1 to formula (2).

[3] = Assessment of the stability level (solubility, transformation, DSC); format: physicochemical; conditions: all temperature range; A01- to A05-type crystals compared
Experimental: (§1) The solubility of A02-type crystal, A03-type crystal and A04-type crystal was measured for 50% acetone aqueous solution. The solubility is lowest for A04-type crystal at all temperatures.
(§2) A05-type crystal was subjected to slurry agitation under room temperature and its solvent-mediated transformation was studied.
The schematic diagram showing the interrelation of the stability levels of the crystals based on the above result is presented as FIG. 4.

[4] = Long term stability test (storage stability); format: physicochemical; conditions: powder X-ray diffraction, DSC, HPLC
Experimental: A04-type crystal samples were separately stored for 3 months under (1) 40° C./75% R.H., (2) 60° C./uncontrolled humidity, and (3) 25° C./uncontrolled humidity/D65 lamp (1000 lux) illumination (2 months under condition (3)), and the change in the crystal form of the samples before and after storage was measured by powder X-ray diffraction and DSC analysis and the change in the purity of the same was confirmed by HPLC measurement (using HPLC Condition 1 or HPLC Condition 2 shown below as the measurement conditions).

[5] = Solubility in 50% acetone aqueous solution; format: physicochemical
Experimental: as §1

[6] = Study of solvent-mediated transformation; format: physicochemical; conditions: slurry agitation in methyl ethyl ketone under room temperature
Source text: as §2

EML4-ALK fusion protein = conditions: reported in Patent Document 1 (WO 2009/008371); cited from earlier work
mutant EGFR protein = conditions: reported in Patent Document 1 (WO 2009/008371); cited from earlier work

SMILES | Filtration Constant B [2] | Cake Average Specific Resistance αm [2] | Solubility ([5]; 25° C.) [mg/mL] | Solubility ([5]; 40° C.) [mg/mL] | Solubility ([5]; 55° C.) [mg/mL] | other results
COc1cc(N2CCC(N3CCN(C)CC3)CC2)ccc1Nc1ncnc(Nc2ccccc2S(=O)(=O)C(C)C)n1 [A04-type crystal, N-{2-methoxy-4-[4-(4-methylpiperazin-1-yl)piperidin-1-yl]phenyl}-N′-[2-(propane-2-sulfonyl)phenyl]-1,3,5-triazine-2,4-diamine] | 2201.7 | 8.43×10^8 m/kg | 4.5 (≈ 7.75 mM) | 8.0 (≈ 13.8 mM) | 13.0 (≈ 22.4 mM) | weight change through water absorption and dehydration [1]: lower than 0.1%; change in mass (hygroscopicity) (Hygroscopicity Test A): no significant change in mass; thermodynamic stability level among crystal forms of Compound A [3]: most stable crystal; change in the crystal form or the purity after storage ([4]; 25° C./uncontrolled humidity/D65 lamp (1000 lux) illumination, 2 months): no significant change; change in the crystal form or the purity after storage ([4]; 40° C./75% R.H., 3 months): no significant change; change in the crystal form or the purity after storage ([4]; 60° C./uncontrolled humidity, 3 months): no significant change
COc1cc(N2CCC(N3CCN(C)CC3)CC2)ccc1Nc1ncnc(Nc2ccccc2S(=O)(=O)C(C)C)n1 [A05-type crystal, N-{2-methoxy-4-[4-(4-methylpiperazin-1-yl)piperidin-1-yl]phenyl}-N′-[2-(propane-2-sulfonyl)phenyl]-1,3,5-triazine-2,4-diamine] | – | – | – | – | – | solvent-mediated transformation [6]: transformed to A04-type crystal after 1 minute of agitation
COc1cc(N2CCC(N3CCN(C)CC3)CC2)ccc1Nc1ncnc(Nc2ccccc2S(=O)(=O)C(C)C)n1 [Compound A, N-{2-methoxy-4-[4-(4-methylpiperazin-1-yl)piperidin-1-yl]phenyl}-N′-[2-(propane-2-sulfonyl)phenyl]-1,3,5-triazine-2,4-diamine] | – | – | – | – | – | inhibitory activity against the kinase activity of EML4-ALK fusion protein (EML4-ALK fusion protein): good inhibitory activity; inhibitory activity against the kinase activity of mutant EGFR protein (mutant EGFR protein): good inhibitory activity
COc1cc(N2CCC(N3CCN(C)CC3)CC2)ccc1Nc1ncnc(Nc2ccccc2S(=O)(=O)C(C)C)n1 [A03-type crystal, N-{2-methoxy-4-[4-(4-methylpiperazin-1-yl)piperidin-1-yl]phenyl}-N′-[2-(propane-2-sulfonyl)phenyl]-1,3,5-triazine-2,4-diamine] | – | – | 5.3 (≈ 9.13 mM) | 8.5 (≈ 14.6 mM) | 16.1 (≈ 27.7 mM) | –
COc1cc(N2CCC(N3CCN(C)CC3)CC2)ccc1Nc1ncnc(Nc2ccccc2S(=O)(=O)C(C)C)n1 [A02-type crystal, N-{2-methoxy-4-[4-(4-methylpiperazin-1-yl)piperidin-1-yl]phenyl}-N′-[2-(propane-2-sulfonyl)phenyl]-1,3,5-triazine-2,4-diamine] | 81406 | 1.31×10^11 m/kg | 13.6 (≈ 23.4 mM) | 17.7 (≈ 30.5 mM) | 30.8 (≈ 53 mM) | cake average specific resistance relative to A04-type crystal ([2]; ratio of A02-type crystal to A04-type crystal, filtration time proportional): about 155 times
